In brackets after ≈: the same amount, converted by molar mass.

From US20150329582A1, “SMALL MOLECULE COMPOUNDS SELECTIVE AGAINST GRAM-NEGATIVE BACTERIAL INFECTIONS” (priority 2014, published 2015) come the findings set out here.

Test [1] has as its system E. coli expressing neomycin phosphotransferase-1 (NPT). Briefly: Poly(U)-directed polyphenylalanine synthesis, with or without neomycin phosphotransferase-1. It is filed as cell-based. The conditions noted are these: for antibiotic activity against E. coli expressing NPT: E. coli transformed with resistance plasmid expressing neomycin phosphotransferase-1. The procedure:
Assay for Polyuridylic Acid [Poly(U)]-Directed-Polyphenylalanine Synthesis.
The reaction mixture contained 400 ug of E. coli B transfer RNA (General Biochemicals, Chagrin Falls, Ohio) per mL, 5 mM spermidine, and [^14C]leucine was replaced with 13 μM [^14C]phenylalanine ([…]). A poly(UUU) RNA template [5′-[…](UUU)12UAAGCAGG-3′ (SEQ ID NO: 1) was used at a concentration of 100 ug per assay. (Legault-Demare and Chambliss, Journal of Bacteriology, 1974, 120(3): 1300-1307).
The assay for polyuridylic acid [poly(U)]-directed-polyphenylalanine synthesis was conducted in the presence or absence of neomycin phosphotransferase-1 (NPT). Wild type E. coli and E. coli transformed with a resistance plasmid expressing neomycin phosphotransferase-1 (NPT) were treated with Mangrolide A and translational error frequency determined.

Test [2] has as its system S-30 extract from E. coli (30S ribosomal extract). Briefly: Error frequency in vitro protein synthesis assay (amino acid misincorporation). The format is biochemical. The conditions noted are these: increasing concentrations (μM) of Mangrolide A, 14C-phenylalanine / 3H-leucine incorporation. Here is the method:
Error Frequency In Vitro Protein Synthesis Assay Using Natural mRNA
72 mM Tris-hydrochloride pH 7.5, 72 mM NH4Cl, 12 mM magnesium acetate, 2.4 mM dithiothreitol (Sigma Co.), 2 mM adenosine triphosphate (ATP), 0.1 mM guanosine triphosphate (GTP), 5 mM phosphoenolpyruvate (Sigma Co.), 20 ug of pyruvate kinase (Sigma Co.) per mL, a mixture of 19 amino acids (each at 72 uM), 13 uM [^14C]leucine (50 counts/min per picomole), 50 ug of calcium folinate (S.P.E.C.I.A., Paris, France) per mL, 0.2 mM DFP, and 0.6 mM Mg Titriplex in a final volume of 0.125 mL per tube. mRNA (1300 μg), an S-30 extract from E. coli (200 μg), or ribosomes plus S-150 (200 μg) and crude initiation factors were added. Incubations were for 30 minutes at 37° C. The extent of amino acid incorporation was determined by measuring the radioactivity remaining insoluble after treatment with hot trichloroacetic acid (90° C. for 15 min). To reduce endogenous mRNA, ribosomes plus 5-150 or S-30 extracts were preincubated just prior to use at 37° C. for 15 min in the reaction mixture described above without [^14C]leucine, the energy generating system and added mRNA.
Assay for Polyuridylic Acid [Poly(U)]-Directed-Polyphenylalanine Synthesis. […]

Test [3] relates to Gram-negative bacterial pathogens (Burkholderia cenocepacia J2315, Burkholderia cenocepacia, Pseudomonas aeruginosa PAO1, Acinetobacter baumannii BAA-1793 and …). Briefly: Minimal Inhibitory Concentration (MIC) test. The format is cell-based. Here is the method:
Minimal Inhibitory Concentration (MIC) Test
The MIC test was performed by adding 2.0 mL of an antibiotic solution (100 ug/mL) to the first tube (out of, e.g., 9 tubes). 1.0 mL of sterile broth was added to all other tubes. 1.0 mL was transferred from the first tube to the second tube. Using a separate pipette, the contents of this tube were mixed and 1.0 mL was transferred to the third tube. Dilutions were continued in this manner through tube number 8. 1.0 mL was removed from tube 8 and discarded. […] Colonies of the culture were suspended to an appropriate turbidity to be tested in 5.0 mL of Mueller-Hinton broth to give a slightly turbid suspension. This suspension was diluted by aseptically pipetting 0.2 mL of the suspension into 40 mL of Mueller-Hinton broth. 1.0 mL of the diluted culture suspension was added to each of the tubes. The final concentration of the antibiotic was one-half of the original concentration in each tube. All tubes were incubated at 35° C. overnight. […]
Antibiotic activity, measured as MIC in μg/mL, of natural Mangrolide A and a synthetic Mangrolide A O-methyl ether derivative were compared against the following Gram-negative microbial pathogens: Burkholderia cenocepacia J2315, Burkholderia cenocepacia, Pseudomonas aeruginosa PAO1, Acinetobacter Baumannii BAA-1793, Acinetobacter baumannii BAA-1605, Escherichia coli (EHEC), and Klebsiella pneumoniae.

The subject of test [4] is A1408G (S30) mutant bacteria. In words: Growth of wild type or A1408G (S30) mutant bacteria in the presence of Mangrolide A. It is filed as cell-based. The conditions noted are these: grown with or without Mangrolide A, compared with wild type. The procedure:
(§1) The error frequency assay was conducted to determine whether a 30S rRNA ribosomal mutant, A1408G is susceptible to Mangrolide A. The mutation site is shown in FIG. 8A. […] (FIG. 8B) When wild type or A1408G (S30) mutant bacteria were grown in wells of a microwell plate containing no additions (No—negative control), Ampicillin or Tetracyclin in the presence or absence of Mangrolide A, A1408G (S30) mutants proliferated similarly to the proliferation of wild type bacteria grown in the absence of Mangrolide A. (FIG. 8C).

Test [5] concerns Bacillus subtillis. In words: Minimal Inhibitory Concentration (MIC) test. The conditions noted are these: Gram positive. The format is cell-based.
For test [6], the system named is Staphyloccus aureus. In words: Minimal Inhibitory Concentration (MIC) test. The format is cell-based. The conditions noted are these: Gram positive.
Test [7] has as its system 30S rRNA ribosomal mutant, A1408G. In words: Error frequency assay with 30S rRNA ribosomal mutant. The format is biochemical. The conditions noted are these: increasing concentrations of Mangrolide A. The procedure: as §1

As a reminder, the MIC is the lowest concentration that inhibits growth of the organism. Lower therefore signals greater potency. Regarding `CC[C@H]1/C=C(\C)[C@@H](O)C/C=C/C=C(\CO)C(=O)O[C@H](C(C)C)C/C=C(C)/C=C(\C)[C@@H]1O[C@@H]1O[C@H](C)[C@@H](O[C@@H]2O[C@H](C)[C@@H](OC)[C@H](O)[C@H]2OC)[C@H](N(C)C)[C@H]1O` [Mangrolide A, mangrolide A], the “antibiotic activity against E. coli expressing NPT” value in test [1] is “inactivated by the expressed neomycin phosphotransferase-1 activity”; in test [1] (listed as mangrolide), “inactivated by neomycin phosphotransferase-1”. The “translational error frequency in E. coli expressing NPT” value in test [1] (grown in the presence of Mangrolide A) is reported as “error frequency comparable to wild type E. coli”. The entries for the “misincorporation of amino acids during protein synthesis” value in test [2] and in test [2] (listed as mangrolide) were “increased misincorporation of amino acids” and “induces misincorporation of amino acids”, respectively. For the same compound, in test [3] (all Gram-negative bacteria tested), the “antibiotic potency compared with the Mangrolide A O-methyl ether derivative” value is “more potent antibiotic against all Gram-negative bacteria tested”. The compound also registered an MIC range in test [3] (range over the Gram-negative bacterial pathogens tested) of 0.25 to 1 µg/mL. In addition, the “susceptibility of A1408G mutant bacteria (growth)” value was “A1408G mutant is resistant” in test [4] and “A1408G mutant strain was able to grow on plates with mangrolide, unlike the wildtype” in test [4] (listed as mangrolide). Further, the MIC is more than 32 µg/mL in test [5] and 32 µg/mL (≈ 41 µM) in test [6]. In addition, the “misincorporation of amino acids with A1408G mutant” value in test [7] was “limited misincorporation was induced”.
